# Measurements taken from US6869593B2, “Non-isotopic detection of osteoblastic activity in vivo using modified bisphosphonates” (Beth Israel Deaconess Medical Center, priority 2000, dated 2005).
# Tests used:
# [1] = Competition of Pam78 binding to HA by unlabeled pamidronate; conditions: 80 nmol (800 μM) unlabeled pamidronate; 2.5 μM Pam78; 1.5 mg/ml HA; three hours
# Method: For competition experiments, free pamidronate was pre-incubated in 100 μl NK buffer with 1.5 mg/ml (1.5 mM) HA for five minutes at room temperature with continuous vortexing. Pam78 was then added from a 20× stock solution to a final concentration of 2.5 μM. Incubation at 37° C. with continuous vortexing continued for three hours prior to filtration and measurement as described above.
# [2] = Serum concentration after intravenous injection (plasma elimination); conditions: 2.6 nmol intravenous, tail vein
# Method: Hairless 7 week old male nu/nu mice (Charles River Laboratories, Wilmington, Mass.; average weight 25 g) were anesthetized with 50 mg/kg i.p. pentobarbital. The lateral tail vein was visualized using a flashlight and 2.6 nmol of compound resuspended in 80 μl of phosphate buffered saline (PBS) was injected using a bent, 30 gauge, ½″ needle. For measurement of plasma concentration, the tip of the tail of an anesthetized animal was cut with a razor blade, and 75 μl of whole blood was milked, and collected with a capillary tube. After clotting and removal of cells by centrifugation, serum was diluted 1:10 in 50 mM Hepes, pH 7.4 and a wavelength scan from 400 nm to 850 nm was performed. Serum concentration was determined by peak height at 771 nm after subtraction of background (pre-injection serum), and correction for hemoglobin absorbance.
# [3] = Spectral measurements (absorbance, fluorescence); assay type: physicochemical
# Method: Spectral Measurements. Absorbance measurements and scans were performed on a Model DU-600 spectrophotometer (Beckman, Fullerton, Calif.) using 1 μM of each compound in 20 mM N-ethylmorpholine (NEM), pH 7.4 and 150 mM KCl (NK buffer). Fluorescence measurements, and excitation/emission scans were performed on a SPECTRAmax Gemini XS microplate reader (Molecular Devices, Sunnyvale, Calif.) using Model 655076 black 96-well plates (Greiner, Lake Mary, Fla.), and […] of each compound in NK buffer. Curves were analyzed using SOFTmax PRO software (Molecular Devices, Sunnyvale, Calif.) and plotted using Prism3 for the Macintosh (GraphPad Software, Inc., San Diego, Calif.).
# [4] = In vivo near-infrared fluorescence imaging of HA
# Method: Compound Injection and Measurement of Serum Concentration. Hairless 7 week old male nu/nu mice (Charles River Laboratories, Wilmington, Mass.; average weight 25 g) were anesthetized with 50 mg/kg i.p. pentobarbital. The lateral tail vein was visualized using a flashlight and 2.6 nmol of compound resuspended in 80 μl of phosphate buffered saline (PBS) was injected using a bent, 30 gauge, ½″ needle.
# [5] = Kinetic binding to hydroxyapatite crystals; conditions: 5 μM compound, 37° C.
# Method: In Vitro Hydroxyapatite Binding Experiments. For kinetic measurements of binding to HA, 5 μM Pam78 or the carboxylic acid of IRDye78 was added from a 20× stock solution to 100 μl NK buffer containing 1.5 mg/ml (1.5 mM) HA. Suspensions were continuously vortexed at 37° C. for the time indicated. Bound and unbound material was separated using a 0.2 μm filter in a 96-well format (Model MAGVN2210, Millipore, Bedford, Mass.), and the concentration of material in the filtrate was measured using the SPECTRAmax Gemini XS fluorescence microplate reader set for an excitation wavelength of 771 nm and an emission wavelength of 796 nm. Bound material was calculated by subtracting unbound compound from the total added to each reaction.
# [6] = Quantitation of skeletal uptake by rib fluorescence intensity
# Method: However, we were able to estimate skeletal uptake by measuring fluorescence intensity of the ribs in the skinless animal. Calibration standards matching the geometry of the ribs were placed next to the animal and mean fluorescence intensities of each standard and the caudal three ribs on each side were measured.
# [7] = rats; cited from earlier work
smiles,measurement,setting,value
NCCC(O)(P(=O)(O)O)P(=O)(O)O [pamidronate],inhibition of Pam78 binding to HA,[1],90%
CC1(C)C(/C=C/C2=C(Oc3ccc(CCC(=O)NCCC(O)(P(=O)([O-])O)P(=O)(O)O)cc3)C(=C\C=C3/N(CCCCS(=O)(=O)O)c4ccc(S(=O)(=O)O)cc4C3(C)C)/CCC2)=[N+](CCCCS(=O)(=O)O)c2ccc(S(=O)(=O)O)cc21 (centres unmarked) [Pam78],early half-life of elimination from plasma,[2],5.0 min
same,late half-life of elimination from plasma,[2],15.4 min
same,peak absorption,[3]; 1 μM in NK buffer,unchanged from IRDye78
same,peak emission,"[3]; excitation fixed at 771 nm, NK buffer",796 nm
same,"time at which uptake in spine, ribs, paws and knees is detected above background",[4]; 2.6 nmol intravenous,15 min
same,"time by which phalanges, wrist, skull, pelvis, femur and ankle become visible",[4]; 2.6 nmol intravenous,≤ 3 h
same,stability in vivo (skeletal signal),[4]; twelve hours post-injection,no degradation of skeletal signal
same,time to asymptotic binding to HA,[5]; 1.5 mg/ml HA,≤ 1 h
same,percent of peak binding to HA achieved,"[5]; five minutes, 1.5 mg/ml (1.5 mM) HA, NK buffer",37%
same,concentration in ribs (mean±S.E.M.),"[6]; caudal three ribs on each side, skinless animal, 2.6 nmol injected",910 ± 27 nM
same,"skeletal uptake, percentage of injected dose",[6]; out of 2.6 nmol injected,57%
same,amount bound to the skeleton,"[6]; out of 2.6 nmol injected, assuming bone density 1.8 g/cm^3, skeletal weight 11.8% body weight",1.5 nmol
O.O.O=P([O-])([O-])CP(=O)([O-])[O-].[99Tc+4] [^99mTc-MDP],skeletal uptake,[7],52%
